System: HBV
Test: Anti-HBV activity in vitro: quantification of extracellular HBV DNA by direct qPCR in HepAD38 cells
Type: cell-based
Settings: Hepatitis B virus, doxycycline-free medium, 96 hours at 37°C, 8-point dose-response curve, read-out: HBV inh EC50
Text: HepAD38 cell line (Ladner et al., Antimicrob Agents Chemother, 1997, 41, 1715-20) was used for HBV inhibition assays. HepAD38 is a subclone, derived from hepatoblastoma cell line HepG2 (ATCC® Number: HB-8065™), that expresses HBV genome under the transcriptional control of a tetracycline-responsive promoter in a TET-OFF system: addition of doxycycline, an antibiotic belonging to the class of tetracycline, suppresses HBV replication, while its removal switches on the process allowing HBV viral particles release in the cell supernatant. HepAD38 cell line is maintained in DMEM/F12, supplemented with 10% of fetal bovine serum, 1% of glutamine, 1% of penicillin/streptomycin, 0.4 mg/ml G418 and 0,3 ug/ml tetracycline. For the HBV inhibition assay, doxycycline-free medium is used in order to allow virion production.
HBV inhibition activity in vitro was performed in 96 multiwell plates. During the initial (primary) screening, compounds were first tested in triplicates at concentrations of 0.02 µM, 0.1µM, 0.5µM and 1µM. For selected compounds, an 8-point dose-response curve was obtained using 1:2 serial dilutions (starting from 0.01µM, 0.1µM, 0.4µM or 5 µM, depending on the degree of inhibition observed during the primary screening). From the dose-response curves, half maximal effective concentration (EC50) could be calculated (see also below).
In more detail, compounds - typically dissolved in DMSO stock solutions - were diluted to 2x the final desired concentration in 100 µl of the above medium (without doxycycline) and plated in three replicates in the 96-well plates.
Simultaneously, HepAD38 cells - extensively pre-washed in doxycycline-free medium in order to induce HBV production - were suspended at 2^∗10^4 cells in 100 µl of doxycycline-free medium and added to each well of the plate, to yield a final assay volume of 200 µl DMSO - used for stock solutions and compounds dilutions - which was always present in the assays at a final concentration of 0.5%.
Plates were then incubated 96 hours at 37°C and then subjected to cell viability assays and extracellular HBV quantification, in order to evaluate both the cytotoxic potential and the antiviral activity of compounds. Cytotoxicity was assessed by a commercial fluorescence assay that measures the metabolic activity of cells, directly related to cell viability (Cell Titer Blue, Promega). Anti-HBV activity was evaluated by quantification of extracellular HBV DNA with direct qPCR. In particular, supernatant was collected and centrifuged for cell debris clarification, viral DNA was extracted from virions by addition of lysis buffer (1 mM 1,4-dithiothreitol, 0.2% sodium dodecyl sulphate) and incubated at 95°C for 10 min. Samples were then diluted 1:40 and real time PCR amplification was performed with SYBR green assay (Power SYBR™ Green PCR Master Mix-Thermo Fisher Scientific) and specific HBV primer (HBV-DF:5'-[…]-3' (SEQ ID No. 1), HBV-DR:5'-[…]-3' (SEQ ID No. 2)).
Antiviral activity data for each compound are reported as EC50 value (see Table 1 legend). Excel and Graphpad Prism programs are typically used for data elaboration and EC50 calculation.

SMILES	EC50 [nM]
C[C@@H](NC(=O)C(=O)N1CC[C@]2(COc3c(c(Cl)n(C)c3C(=O)Nc3ccc(F)c(Cl)c3)S(=O)(=O)N2)C1)C(F)(F)F (stereo in doubt) [Example E33, (R)-8'-chloro-N-(3-chloro-4-fluorophenyl)-7'-methyl-1-(2-oxo-2-(((R)-1,1,1-trifluoropropan-2-yl)amino)acetyl)-2'H,4'H,7'H-spiro[pyrrolidine-3,3'-pyrrolo[3,4-b][1,4,5]oxathiazepine]-6'-carboxamide 1',1'-dioxide]	< 500
C[C@@H](NC(=O)C(=O)N1CCC2(COc3c(cn(C)c3C(=O)Nc3ccc(F)c(F)c3)S(=O)(=O)N2)C1)C(F)(F)F (stereo partly drawn) [Example E1, N-(3,4-difluorophenyl)-7'-methyl-1-(2-oxo-2-(((R)-1,1,1-trifluoropropan-2-yl)amino)acetyl)-2'H,4'H,7'H-spiro[pyrrolidine-3,3'-pyrrolo[3,4-b][1,4,5]oxathiazepine]-6'-carboxamide 1',1'-dioxide]	< 500
C[C@@H](NC(=O)C(=O)N1CCC2(COc3c(c(Cl)n(C)c3C(=O)Nc3ccc(F)c(F)c3)S(=O)(=O)N2)C1)C(F)(F)F (stereo partly drawn) [Example E3, 8'-chloro-N-(3,4-difluorophenyl)-7'-methyl-1-(2-oxo-2-(((R)-1,1,1-trifluoropropan-2-yl)amino)acetyl)-2'H,4'H,7'H-spiro[pyrrolidine-3,3'-pyrrolo[3,4-b][1,4,5]oxathiazepine]-6'-carboxamide 1',1'-dioxide]	< 500
C[C@@H](NC(=O)C(=O)N1CC[C@]2(COc3c(cn(C)c3C(=O)Nc3ccc(F)c(Cl)c3)S(=O)(=O)N2)C1)C(F)(F)F [Example E4, (R)-N-(3-chloro-4-fluorophenyl)-7'-methyl-1-(2-oxo-2-(((R)-1,1,1-trifluoropropan-2-yl)amino)acetyl)-2'H,4'H,7'H-spiro[pyrrolidine-3,3'-pyrrolo[3,4-b][1,4,5]oxathiazepine]-6'-carboxamide 1',1'-dioxide]	< 500
C[C@@H](NC(=O)C(=O)N1CC[C@@]2(COc3c(cn(C)c3C(=O)Nc3ccc(F)c(Cl)c3)S(=O)(=O)N2)C1)C(F)(F)F [Example E5, (S)-N-(3-chloro-4-fluorophenyl)-7'-methyl-1-(2-oxo-2-(((R)-1,1,1-trifluoropropan-2-yl)amino)acetyl)-2'H,4'H,7'H-spiro[pyrrolidine-3,3'-pyrrolo[3,4-b][1,4,5]oxathiazepine]-6'-carboxamide 1',1'-dioxide]	< 500
C[C@@H](NC(=O)C(=O)N1CC[C@]2(COc3c(cn(C)c3C(=O)Nc3ccc(F)c(C(F)F)c3)S(=O)(=O)N2)C1)C(F)(F)F [Example E6, (R)-N-(3-(difluoromethyl)-4-fluorophenyl)-7'-methyl-1-(2-oxo-2-(((R)-1,1,1-trifluoropropan-2-yl)amino)acetyl)-2'H,4'H,7'H-spiro[pyrrolidine-3,3'-pyrrolo[3,4-b][1,4,5]oxathiazepine]-6'-carboxamide 1',1'-dioxide]	< 500
C[C@@H](NC(=O)C(=O)N1CCC2(CC1)COc1c(cn(C)c1C(=O)Nc1ccc(F)c(Cl)c1)S(=O)(=O)N2)C(F)(F)F [Example E7, (R)-N-(3-chloro-4-fluorophenyl)-7'-methyl-1-(2-oxo-2-((1,1,1-trifluoropropan-2-yl)amino)acetyl)-2'H,4'H,7'H-spiro[piperidine-4,3'-pyrrolo[3,4-b][1,4,5]oxathiazepine]-6'-carboxamide 1',1'-dioxide]	< 500
C[C@@H](NC(=O)C(=O)N1CCC2(CC1)COc1c(cn(C)c1C(=O)Nc1ccc(F)c(C(F)F)c1)S(=O)(=O)N2)C(F)(F)F [Example E8, (R)-N-(3-(difluoromethyl)-4-fluorophenyl)-7'-methyl-1-(2-oxo-2-((1,1,1-trifluoropropan-2-yl)amino)acetyl)-2'H,4'H,7'H-spiro[piperidine-4,3'-pyrrolo[3,4-b][1,4,5]oxathiazepine]-6'-carboxamide 1',1'-dioxide]	< 500
C[C@@H](NC(=O)C(=O)N1CC2(COc3c(cn(C)c3C(=O)Nc3ccc(F)c(Cl)c3)S(=O)(=O)N2)C1)C(F)(F)F [Example E9, (R)-N-(3-chloro-4-fluorophenyl)-7'-methyl-1-(2-oxo-2-((1,1,1-trifluoropropan-2-yl)amino)acetyl)-2'H,4'H,7'H-spiro[azetidine-3,3'-pyrrolo[3,4-b][1,4,5]oxathiazepine]-6'-carboxamide 1',1'-dioxide]	< 500
C[C@@H](NC(=O)C(=O)N1CC2(COc3c(cn(C)c3C(=O)Nc3ccc(F)c(C(F)F)c3)S(=O)(=O)N2)C1)C(F)(F)F [Example E10, (R)-N-(3-(difluoromethyl)-4-fluorophenyl)-7'-methyl-1-(2-oxo-2-((1,1,1-trifluoropropan-2-yl)amino)acetyl)-2'H,4'H,7'H-spiro[azetidine-3,3'-pyrrolo[3,4-b][1,4,5]oxathiazepine]-6'-carboxamide 1',1'-dioxide]	< 500
C[C@@H](NC(=O)C(=O)N1CC[C@@]2(COc3c(cn(C)c3C(=O)Nc3ccc(F)c(C(F)F)c3)S(=O)(=O)N2)C1)C(F)(F)F [Example E11, (S)-N-(3-(difluoromethyl)-4-fluorophenyl)-7'-methyl-1-(2-oxo-2-(((R)-1,1,1-trifluoropropan-2-yl)amino)acetyl)-2'H,4'H,7'H-spiro[pyrrolidine-3,3'-pyrrolo[3,4-b][1,4,5]oxathiazepine]-6'-carboxamide 1',1'-dioxide]	< 500
C[C@H](NC(=O)C(=O)N1CCC2(CC1)COc1c(cn(C)c1C(=O)Nc1ccc(F)c(Cl)c1)S(=O)(=O)N2)C(F)(F)F [Example E12, (S)-N-(3-chloro-4-fluorophenyl)-7'-methyl-1-(2-oxo-2-((1,1,1-trifluoropropan-2-yl)amino)acetyl)-2'H,4'H,7'H-spiro[piperidine-4,3'-pyrrolo[3,4-b][1,4,5]oxathiazepine]-6'-carboxamide 1',1'-dioxide]	< 500
Cn1cc2c(c1C(=O)Nc1ccc(F)c(Cl)c1)OCC1(CCN(C(=O)C(=O)NCC(F)(F)F)CC1)NS2(=O)=O [Example E13, N-(3-chloro-4-fluorophenyl)-7'-methyl-1-(2-oxo-2-((2,2,2-trifluoroethyl)amino)acetyl)-2'H,4'H,7'H-spiro[piperidine-4,3'-pyrrolo[3,4-b][1,4,5]oxathiazepine]-6'-carboxamide 1',1'-dioxide]	< 500
C[C@H](NC(=O)C(=O)N1CCC2(CC1)COc1c(cn(C)c1C(=O)Nc1ccc(F)c(C(F)F)c1)S(=O)(=O)N2)C(F)(F)F [Example E14, (S)-N-(3-(difluoromethyl)-4-fluorophenyl)-7'-methyl-1-(2-oxo-2-((1,1,1-trifluoropropan-2-yl)amino)acetyl)-2'H,4'H,7'H-spiro[piperidine-4,3'-pyrrolo[3,4-b][1,4,5]oxathiazepine]-6'-carboxamide 1',1'-dioxide]	< 500
Cn1cc2c(c1C(=O)Nc1ccc(F)c(C(F)F)c1)OCC1(CCN(C(=O)C(=O)NC(C)(C)C(F)(F)F)CC1)NS2(=O)=O [Example E15, N-(3-(difluoromethyl)-4-fluorophenyl)-7'-methyl-1-(2-oxo-2-((1,1,1-trifluoro-2-methylpropan-2-yl)amino)acetyl)-2'H,4'H,7'H-spiro[piperidine-4,3'-pyrrolo[3,4-b][1,4,5]oxathiazepine]-6'-carboxamide 1',1'-dioxide]	< 500
